Source: US20150315188A1, “COMPOUNDS AND METHODS FOR TREATMENT OF HYPERTENSION” (MEDIVATION TECHNOLOGIES, INC., priority 2012, published 2015)

Biological target: T1, Human adrenergic α2B receptor (Homo sapiens, UniProt P18089)
T1 sequence (P18089 1-450): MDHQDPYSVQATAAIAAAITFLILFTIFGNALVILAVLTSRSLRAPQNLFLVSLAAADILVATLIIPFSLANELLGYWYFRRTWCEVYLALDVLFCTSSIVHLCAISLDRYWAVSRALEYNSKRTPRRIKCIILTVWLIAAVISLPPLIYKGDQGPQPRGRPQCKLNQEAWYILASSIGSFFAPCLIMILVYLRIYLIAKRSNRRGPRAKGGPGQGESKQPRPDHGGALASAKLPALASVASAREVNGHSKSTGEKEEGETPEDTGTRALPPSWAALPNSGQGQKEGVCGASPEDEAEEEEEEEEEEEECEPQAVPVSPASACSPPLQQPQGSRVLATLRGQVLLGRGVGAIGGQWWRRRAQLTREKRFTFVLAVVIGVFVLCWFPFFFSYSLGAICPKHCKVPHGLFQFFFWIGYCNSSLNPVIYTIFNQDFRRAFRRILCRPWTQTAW
Assay: Radioligand binding, adrenergic α2B (Protocol Group B)
Parameters: purchased Milipore (Millipore)
Conditions: 10 nM compound; Protocol Group B; 0.01 µM
Description: To evaluate the activity of compounds in radioligand binding assays, Human adrenergic α2B receptor obtained from recombinant cell membrane from Milipore. Binding experiments were carried out in Tris-HCl buffer (50 mM Tris-HCl buffer, pH 7.4, 5 mM Mgcl2, 1 mM Cacl2, 0.2% BSA) as recommended by Milipore. […] Non-specific binding was estimated in the presence of 10 μM Rauwolscine. […] Compounds were screened at various concentrations, using 1% DMSO as vehicle. Biochemical assay results are presented as the percent Inhibition of specific binding in Table B1b, or estimated Ki values in Table B1c.

Structure (SMILES) | Percentage inhibition of ligand binding, Adrenergic α2B (10 nM) [%]
OC(Cn1c2c(c3cc(F)ccc31)C1CCCN1CC2)c1ccncc1 (single isomer, unassigned) [18c] | 17
Cc1ccc2c(c1)c1c(n2CC(C)(O)c2ccncc2)CC2CCCN2C1 (single isomer, unassigned) [37d] | 15
Cc1ccc2c(c1)c1c(n2CC(C)(O)c2cncc(F)c2)CCN(C)C1 (single isomer, unassigned) [46b] | 0
Cc1ccc2c(c1)c1c(n2CC(C)(O)c2cnc3ccccc3c2)CCN(C)C1 (single isomer, unassigned) [32b] | 0
Cc1ccc2c(c1)c1c(n2CC(C)(O)c2ccc(N(C)C)nc2)CCN(C)C1 (single isomer, unassigned) [39b] | 5

Same assay, conditions: 30 nM compound; Protocol Group B; 0.03 µM

Structure (SMILES) | Percentage inhibition of ligand binding, Adrenergic α2B (30 nM) [%]
OC(Cn1c2c(c3cc(F)ccc31)C1CCCN1CC2)c1ccncc1 (single isomer, unassigned) [18c] | 13
Cc1ccc2c(c1)c1c(n2CC(C)(O)c2ccncc2)CC2CCCN2C1 (single isomer, unassigned) [37d] | 36
Cc1ccc2c(c1)c1c(n2CC(C)(O)c2cncc(F)c2)CCN(C)C1 (single isomer, unassigned) [46b] | 15
Cc1ccc2c(c1)c1c(n2CC(C)(O)c2cnc3ccccc3c2)CCN(C)C1 (single isomer, unassigned) [32b] | 14
Cc1ccc2c(c1)c1c(n2CC(C)(O)c2ccc(N(C)C)nc2)CCN(C)C1 (single isomer, unassigned) [39b] | 20

Same assay, conditions: 0.1 μM compound; Protocol Group B; 0.1 µM

Structure (SMILES) | Percentage inhibition of ligand binding, Adrenergic α2B (0.1 μM) [%]
OC(Cn1c2c(c3cc(F)ccc31)C1CCCN1CC2)c1ccncc1 (single isomer, unassigned) [18c] | 22
Cc1ccc2c(c1)c1c(n2CC(C)(O)c2ccncc2)CC2CCCN2C1 (single isomer, unassigned) [37d] | 68
Cc1ccc2c(c1)c1c(n2CC(C)(O)c2cncc(F)c2)CCN(C)C1 (single isomer, unassigned) [46b] | 37
Cc1ccc2c(c1)c1c(n2CC(C)(O)c2ccc(N(C)C)nc2)CCN(C)C1 (single isomer, unassigned) [39b] | 32

Biological target: T2, Human adrenergic α2A receptor (Homo sapiens, UniProt P08913)
T2 sequence (P08913 1-465): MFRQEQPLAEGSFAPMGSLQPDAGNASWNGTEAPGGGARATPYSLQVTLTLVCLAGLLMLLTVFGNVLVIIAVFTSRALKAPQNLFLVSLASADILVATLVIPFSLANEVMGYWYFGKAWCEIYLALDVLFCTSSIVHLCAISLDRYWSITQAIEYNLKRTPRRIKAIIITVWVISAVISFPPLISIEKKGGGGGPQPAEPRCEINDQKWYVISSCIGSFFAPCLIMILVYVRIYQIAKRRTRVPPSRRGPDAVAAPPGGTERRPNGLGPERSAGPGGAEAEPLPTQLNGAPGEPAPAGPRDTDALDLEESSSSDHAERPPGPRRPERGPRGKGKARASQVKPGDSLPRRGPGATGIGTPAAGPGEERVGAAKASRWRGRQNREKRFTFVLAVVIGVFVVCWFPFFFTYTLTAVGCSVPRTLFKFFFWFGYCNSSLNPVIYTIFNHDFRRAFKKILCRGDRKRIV
Assay: Radioligand binding, adrenergic α2A (Protocol Group B)
Parameters: purchased Milipore (Millipore)
Conditions: 0.1 μM compound; Protocol Group B; 0.1 µM
Description: To evaluate the activity of compounds in radioligand binding assays, Human adrenergic α2A receptor obtained from recombinant cell membrane from Milipore. Binding experiments were carried out in Tris-HCl buffer (50 mM Tris-HCl buffer, pH 7.4, 5 mM Mgcl2, 1 mM Cacl2, 0.2% BSA) as recommended by Milipore. Compounds were incubated with 2 nM [^3H]MK-912 for 60 min at 25° C. Non-specific binding was estimated in the presence of 10 μM Rauwolscine. Receptor proteins were harvested on 0.33% PEI(poly-ethylenemine) soaked GFC filter mat, the specifically bound [^3H]MK-912 were counted to determine total binding. Compounds were screened at various concentrations, using 1% DMSO as vehicle. percent inhibition of specific binding was determined. Biochemical assay results are presented as the percent Inhibition of specific binding in Table B1b, or estimated Ki values in Table B1c.

Structure (SMILES) | Percentage inhibition of ligand binding, Adrenergic α2A (0.1 μM) [%]
OC(Cn1c2c(c3cc(F)ccc31)C1CCCN1CC2)c1ccncc1 (single isomer, unassigned) [18c] | 7
Cc1ccc2c(c1)c1c(n2CC(C)(O)c2ccncc2)CC2CCCN2C1 (single isomer, unassigned) [37d] | 4
Cc1ccc2c(c1)c1c(n2CC(C)(O)c2cncc(F)c2)CCN(C)C1 (single isomer, unassigned) [46b] | −1
Cc1ccc2c(c1)c1c(n2CC(C)(O)c2cnc3ccccc3c2)CCN(C)C1 (single isomer, unassigned) [32b] | −5
Cc1ccc2c(c1)c1c(n2CC(C)(O)c2ccc(N(C)C)nc2)CCN(C)C1 (single isomer, unassigned) [39b] | 6

Same assay, conditions: 0.3 μM compound; Protocol Group B; 0.3 µM

Structure (SMILES) | Percentage inhibition of ligand binding, Adrenergic α2A (0.3 μM) [%]
OC(Cn1c2c(c3cc(F)ccc31)C1CCCN1CC2)c1ccncc1 (single isomer, unassigned) [18c] | 0
Cc1ccc2c(c1)c1c(n2CC(C)(O)c2ccncc2)CC2CCCN2C1 (single isomer, unassigned) [37d] | 17
Cc1ccc2c(c1)c1c(n2CC(C)(O)c2cncc(F)c2)CCN(C)C1 (single isomer, unassigned) [46b] | 3
Cc1ccc2c(c1)c1c(n2CC(C)(O)c2cnc3ccccc3c2)CCN(C)C1 (single isomer, unassigned) [32b] | 9
Cc1ccc2c(c1)c1c(n2CC(C)(O)c2ccc(N(C)C)nc2)CCN(C)C1 (single isomer, unassigned) [39b] | 5

Biological target: T3, Human adrenergic α1B receptor (Homo sapiens, UniProt P35368)
T3 sequence (P35368 1-520): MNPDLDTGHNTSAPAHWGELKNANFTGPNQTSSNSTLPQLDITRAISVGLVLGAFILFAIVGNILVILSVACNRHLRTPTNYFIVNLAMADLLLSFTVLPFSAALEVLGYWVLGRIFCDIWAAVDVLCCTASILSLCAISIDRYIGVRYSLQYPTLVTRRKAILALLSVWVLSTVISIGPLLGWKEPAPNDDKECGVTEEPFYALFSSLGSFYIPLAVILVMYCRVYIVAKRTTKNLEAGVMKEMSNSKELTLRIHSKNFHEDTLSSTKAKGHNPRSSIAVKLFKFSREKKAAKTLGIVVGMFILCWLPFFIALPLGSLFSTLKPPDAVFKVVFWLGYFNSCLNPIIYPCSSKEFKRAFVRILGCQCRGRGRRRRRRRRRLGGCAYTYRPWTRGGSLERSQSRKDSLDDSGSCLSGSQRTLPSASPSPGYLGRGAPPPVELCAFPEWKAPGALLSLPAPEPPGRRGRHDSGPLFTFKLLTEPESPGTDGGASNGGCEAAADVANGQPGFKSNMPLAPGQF
Assay: Radioligand binding, adrenergic α1B (Protocol Group B)
Parameters: purchased Milipore (Millipore)
Conditions: 0.1 μM compound; Protocol Group B
Description: To evaluate the activity of compounds in radioligand binding assays, Human adrenergic α1B receptor obtained from recombinant cell membrane from Milipore. Binding experiments were carried out in Tris-HCl buffer (50 mM Tris-HCl buffer, pH 7.4, 10 mM Mgcl2, 1 mM EDTA) as recommended by Milipore. Compounds were incubated with 0.3 nM [^3H]Prazosin for 60 min at 25° C. Non-specific binding was estimated in the presence of 10 μM prazosin. Receptor proteins were harvested on 0.33% PEI(poly-ethylenemine) soaked GFC filter mat, the specifically bound [^3H]Prazosin were counted to determine total binding. Compounds were screened at various concentrations, using 1% DMSO as vehicle. percent inhibition of specific binding was determined. Biochemical assay results are presented as the percent Inhibition of specific binding in Table B1b, or estimated Ki values in Table B1c.

Structure (SMILES) | Percentage inhibition of ligand binding, Adrenergic α1B (0.1 μM) [%]
Cc1ccc2c(c1)c1c(n2CC(C)(O)c2cnc3ccccc3c2)CCN(C)C1 (single isomer, unassigned) [32b] | −1

Same assay, conditions: 0.1 μM compound; Protocol Group B; 0.1 µM

Structure (SMILES) | Percentage inhibition of ligand binding, Adrenergic α1B (0.1 μM) [%]
OC(Cn1c2c(c3cc(F)ccc31)C1CCCN1CC2)c1ccncc1 (single isomer, unassigned) [18c] | 5
Cc1ccc2c(c1)c1c(n2CC(C)(O)c2ccncc2)CC2CCCN2C1 (single isomer, unassigned) [37d] | 5
Cc1ccc2c(c1)c1c(n2CC(C)(O)c2cncc(F)c2)CCN(C)C1 (single isomer, unassigned) [46b] | 0
Cc1ccc2c(c1)c1c(n2CC(C)(O)c2ccc(N(C)C)nc2)CCN(C)C1 (single isomer, unassigned) [39b] | 10

Same assay, conditions: 0.3 μM compound; Protocol Group B; 0.3 µM

Structure (SMILES) | Percentage inhibition of ligand binding, Adrenergic α1B (0.3 μM) [%]
OC(Cn1c2c(c3cc(F)ccc31)C1CCCN1CC2)c1ccncc1 (single isomer, unassigned) [18c] | 6
Cc1ccc2c(c1)c1c(n2CC(C)(O)c2ccncc2)CC2CCCN2C1 (single isomer, unassigned) [37d] | 14
Cc1ccc2c(c1)c1c(n2CC(C)(O)c2cncc(F)c2)CCN(C)C1 (single isomer, unassigned) [46b] | 10
Cc1ccc2c(c1)c1c(n2CC(C)(O)c2cnc3ccccc3c2)CCN(C)C1 (single isomer, unassigned) [32b] | 13
Cc1ccc2c(c1)c1c(n2CC(C)(O)c2ccc(N(C)C)nc2)CCN(C)C1 (single isomer, unassigned) [39b] | 10
